Laboratory results as given in article PMC9774249, “A Novel Peptide with Antifungal Activity from Red Swamp Crayfish Procambarus clarkii” (Antibiotics, 2022).
Read-outs that look alike come from different tables or passages of the source. Where no end group is shown, it is not given here.

Experiments:
S. aureus ATCC 25923 = type: cell-based, Staphylococcus aureus
Protocol: (§1) Natural extracts derived from hemocytes and hemolymph of P. clarkii were liophylized and then resuspended in ultrapure water to obtain a protein content of 22 µg/mL and 1400 µg/mL, respectively. MIC values of extracts were determined by a micro-method previously described based on serial dilution 1:2 of the extracts, using Mueller Hinton II medium and Sabouraud medium (for C. albicans), in 96-well microplates and starting from concentrations of 50% v/v to 1.5 % v/v in a final volume equal to 100 μL. Thus, 10 μL of microbial suspension (5 × 10^6 CFU/ mL) obtained from a bacterial culture grown at 37 °C for 24 h on Tryptic Soy Agar (TSA) in 5 mL of 0.9% NaCl, with a turbidity equivalent to a 0.5 McFarland standard was added to 96-well plates and incubated at 37 °C for 24 h. MICs of extracts were determined by a microplate reader (GloMax®-Multi Detection System, Promega Italia s.r.l, Milan, Italy) with the lowest concentration of the sample whose optical density (OD) at 570 nm was similar to negative control wells (broth without inoculum to control the sterility of medium). Moreover, a positive growth control (bacterial tested strain in the medium without extracts to compare the growth of cells with samples) and a sample control (extract solutions without inoculum to control the absorbance of the samples at different concentrations) were also added.
(§2) The same methods and media were used to determine the antimicrobial activity of synthetic peptides #3, #5, #7, and #14, and derivatives. They were dissolved in ultrapure water, or 1 mL ultrapure water with 40 μL NH4OH (28% v/v) in the case of peptide #14, to obtain a stock solution of 5 mg/mL. Working solutions of 250 μg/mL were prepared for each peptide in MHII or Sabouraud, and test solutions in a 96 wells plate were obtained by diluting in a series 1:2. Each assay was performed in triplicate.

selected strains = test: EC50 under low-salt conditions (viable count); type: cell-based; conditions: 10 mM sodium phosphate buffer, 100-0.15 μg/mL, 3 h 37 °C, CFU count, maximum tested 100 μg/mL
Protocol: The antimicrobial activity of the chemically synthesized peptides #3, #5, #7, and #14, and their derivatives, against selected strains were evaluated in terms of peptide half-maximal effective concentration to inhibit 50% of the viable bacteria (EC50), as reported by other authors. Briefly, 5 × 10^4 CFU per well of tested microorganisms were incubated with peptide concentrations from 100 to 0.15 μg/mL (1:2 serial dilutions) for 3 h at 37 °C in 100 μL of 10 mM sterile sodium phosphate buffer. After 3 h, 10 μL of each dilution was spotted in triplicate on Tryptic Soy Agar plates and incubated at 37 °C for 24 h. After the incubation time, the number of colonies from any sample were counted and compared with the CFU viable count of the none-treated growth control.

C. albicans ATCC 10231 [1] = type: cell-based, Candida albicans
Protocol: as §1, §2

E. faecalis ATCC 29212 = type: cell-based, Enterococcus faecalis
Protocol: as §1, §2

E. coli ATCC 25922 = type: cell-based, Escherichia coli
Protocol: as §1, §2

P. aeruginosa ATCC 15442 = type: cell-based, Pseudomonas aeruginosa
Protocol: as §1, §2

C. albicans ATCC 10231 [2] = test: Cell membrane integrity, propidium iodide uptake; type: cell-based, Candida albicans; conditions: 25, 20 and 15 μg/mL (sub-MIC), 24 h
Protocol: The cell membrane integrity of C. albicans ATCC 10231 after exposure to peptide #14d was evaluated using the PI uptake assay, as described by Bezerra et al., with some modifications. C. albicans ATCC 10231 was incubated with the peptide #14d in the same conditions reported for inhibition of biofilm formation. Thus, 20 μL of propidium iodide (PI, Molecular probes^TM, Fisher Scientific, Erembodegem, Belgium) was added to each well and the plate was incubated in the dark for 30 min at 25 °C. Then, the plate was washed three times with 0.9% NaCl and observed with an Olympus FV1200 confocal microscope with TIRF (Total internal reflection fluorescence) integrated, using an excitation wavelength of 535 nm and emission wavelength of 617 nm.

[3] = system: C. albicans ATCC 10231 biofilm; test: Scanning electron microscopy of biofilm morphology; type: cell-based, Candida albicans; conditions: 25 μg/mL (sub-MIC), 24 h, versus control
Protocol: The morphological changes in C. albicans ATCC 10231 cells were assessed by scanning electron microscopy (SEM, Phenom ProX, PhenomWorld, Eindhoven, Netherlands), using the method described by Bezerra et al., with some modifications. Biofilms were fixed with a 4% formaldehyde solution in DPBS for 30 min at 37 °C. Then, the biofilms were washed three times with sodium phosphate buffer (pH = 7.4). Next, samples were dehydrated with increased ethanol concentrations (30%, 50%, 70%, and 100%) for 10 min at 24 °C. Lastly, the final dehydration was conducted with […] (HDMS) for 10 min, removing the solvent at the end of washing to allow the samples to air dry. The samples were analyzed by scanning electron microscopy (SEM, Phenom ProX, PhenomWorld).

C. albicans ATCC 10231 [4] = test: Overproduction of reactive oxygen species (DCFH-DA); type: cell-based, Candida albicans; conditions: 25 and 20 μg/mL
Protocol: The ROS overproduction in C. albicans ATCC 10231 due to peptide #14d was evaluated using the method described by Bezerra et al., with some modifications. C. albicans ATCC 10231 was incubated with peptide #14d in the same conditions reported for biofilm inhibition formation. Then, the formed biofilm was washed with 0.9% NaCl three times to remove the Sabouraud liquid medium. After this procedure, 20 μL of 2′,7′ dichlorofluorescein diacetate (DCFH-DA) was added to each well and the plate was incubated in the dark for 30 min at 25 °C. DCFH-DA is oxidized by ROS to dichlorofluorescein, which emits green fluorescence. Lastly, the biofilms were washed with 0.9% NaCl three times and observed with a fluorescence microscope with an excitation wavelength of 488 nm and emission wavelength of 525 nm.

C. albicans ATCC 10231 [5] = type: cell-based, Candida albicans; conditions: ATCC 10231, 24 h
Protocol: Sub-MIC concentrations were tested for their ability to interfere with the growth as sessile community of S. aureus ATCC 25923, P. aeruginosa ATCC 15442, and C. albicans ATCC 10231, as previously described. Bacterial strains or the fungal strain were incubated in test tubes with TSB or Sabouraud (5 mL) containing 2% w/v glucose at 37 °C for 24 h. After that, small aliquots (2.5 μL) from the diluted microbial suspensions whose turbidity was equivalent to a 0.5 McFarland standard were added to each well of a polystyrene sterile flat-bottom 96-well plate filled with TSB or BS (200 μL) with 2% w/v glucose. Sub-MIC concentration values of amino acidic fraction from hemocytes and hemolymph of P. clarkii or of chemically synthesized peptides were directly added to the wells and the plates were incubated at 37 °C for 24 h. After biofilm growth, samples were washed twice with sterile 0.9% NaCl and stained with 200 μL of 0.1% w/v crystal violet solution for 15 min at 37 °C [58]. Excess solution was discarded, and the plate was washed twice using tap water. […] Last, the absorbance was determined at 600 nm using a microplate reader (GloMax®-Multi Detection System, Promega Italia s.r.l, Milan, Italy). […] The percentage of inhibition was calculated through the formula:% Inhibition = [(OD growth − OD sample)/OD growth control] × 100. […]

[6] = synthetic peptides, S. aureus ATCC 25923, maximum tested 250 μg/mL, 1:2 dilutions, MHII, 37 °C 24 h, triplicate
[7] = synthetic peptides, E. faecalis ATCC 29212, maximum tested 250 μg/mL, 1:2 dilutions, MHII, 37 °C 24 h, triplicate
[8] = synthetic peptides, E. coli ATCC 25922, maximum tested 250 μg/mL, 1:2 dilutions, MHII, 37 °C 24 h, triplicate
[9] = synthetic peptides, P. aeruginosa ATCC 15442, maximum tested 250 μg/mL, 1:2 dilutions, MHII, 37 °C 24 h, triplicate

| Sequence | MIC (S. aureus ATCC 25923; [6]) [µg/mL] | EC50 (concentration to inhibit 50% of the viable bacteria) (selected strains) [µg/mL] | MIC (C. albicans ATCC 10231 [1]; synthetic peptides, C. albicans ATCC 10231, maximum tested 250 μg/mL, 1:2 dilutions, Sabouraud, 37 °C 24 h, triplicate) [µg/mL] | MIC (E. faecalis ATCC 29212; [7]) [µg/mL] | MIC (E. coli ATCC 25922; [8]) [µg/mL] | MIC (P. aeruginosa ATCC 15442; [9]) [µg/mL] | MIC (S. aureus ATCC 25923; ATCC 25923, 24 h) [µg/mL] | MIC (C. albicans ATCC 10231 [1]; ATCC 10231, 24 h) [µg/mL] | MIC (E. faecalis ATCC 29212; ATCC 29212, 24 h) [µg/mL] | MIC (E. coli ATCC 25922; ATCC 25922, 24 h) [µg/mL] | MIC (P. aeruginosa ATCC 15442; ATCC 15442, 24 h) [µg/mL] | membrane integrity (PI uptake, red fluorescence) (C. albicans ATCC 10231 [2]) | biofilm morphology by SEM [3] | ROS overproduction (DCFH-DA fluorescence) (C. albicans ATCC 10231 [4]) | BIC50 (biofilm inhibition concentration) (C. albicans ATCC 10231 [5]) [µg/mL] | minimal fungicidal concentration (MFC) (C. albicans) [µg/mL] |
| --- | --- | --- | --- | --- | --- | --- | --- | --- | --- | --- | --- | --- | --- | --- | --- | --- |
| SSGYGGYGGGRF [Peptide #3] | > 250 | > 100 | > 250 | > 250 | > 250 | > 250 |  |  |  |  |  |  |  |  |  |  |
| FSLVNAVDQTT [Peptide #14] |  | > 100 |  |  |  |  | > 250 | > 250 | > 250 | > 250 | > 250 |  |  |  |  |  |
| YGGYFGNR [Peptide #7] |  | > 100 |  |  |  |  | > 250 | > 250 | > 250 | > 250 | > 250 |  |  |  |  |  |
| IIIRKGRW [Peptide #3d] |  |  |  |  |  |  | > 250 |  | > 250 | > 250 | > 250 |  |  |  |  |  |
| NNWTGADCKAATLK [Peptide #5] |  | > 100 |  |  |  |  | > 250 | > 250 | > 250 | > 250 | > 250 |  |  |  |  |  |
| FHLVWRAGGTF [Peptide #14d] |  |  |  |  |  |  | > 250 | 31.2 | > 250 | > 250 | > 250 | damaged the cell membrane and induced an increase in red fluorescence intensity | evident variations in the morphology, inducing wrinkles and scars | did not induce ROS overproduction | 23.2 | 62.5 |
| NWWTGARCKAATLK [Peptide #5d, synthetic derivative of natural peptide #5] | > 250 |  |  | > 250 | > 250 | > 250 |  |  |  |  |  |  |  |  |  |  |
